Among the test systems are NCI-H226 lung; UACC-257 melanoma; M14 melanoma; CCRF-CEM leukemia; SK-MEL-28 melanoma; DU-145 prostate; SF-295 CNS; SK-MEL-2 melanoma; 786-0 renal; HCT-15 colon.
Test in all cases: inhibition of tumour cell growth, NCI panel, 48 h

SMILES strings stand for the structures. Several values for one entry are separate records, joined by “and”; a condition that tells them apart may be missing. Equal values may be shown once.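 Assay format: 96-well plates, 48-hour exposure. GI50 is the concentration that inhibits growth by half. TGI: concentration producing complete growth inhibition.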

Consider `C[C@]12CC[C@@H]3c4ccc(O)cc4C(O)C[C@H]3[C@@H]1CCC2=O` (stereo partly specified), for which the GI50 with NCI-H226 lung, in the assay on UACC-257 melanoma, in the assay with M14 melanoma, in the assay with CCRF-CEM leukemia, in the assay on SK-MEL-28 melanoma and in the assay with DU-145 prostate was greater than 100 µM in each case. The GI50 in the assay on SF-295 CNS, with SK-MEL-2 melanoma, in the assay on 786-0 renal and in the assay with HCT-15 colon was greater than 100 µM in each case. Further, the TGI in the assay on NCI-H226 lung, in the assay on UACC-257 melanoma, in the assay on M14 melanoma, in the assay with CCRF-CEM leukemia, with SK-MEL-28 melanoma and with DU-145 prostate was greater than 100 µM in each case. The TGI in the assay with SF-295 CNS, in the assay with SK-MEL-2 melanoma, in the assay with 786-0 renal and in the assay on HCT-15 colon was greater than 100 µM each time.

For `COc1ccccc1Nc1nc(NNC(=O)Cc2ccccc2)nc(NNC(=O)c2ccncc2)n1`, the TGI in the assay with UACC-257 melanoma, in the assay with M14 melanoma, in the assay with CCRF-CEM leukemia, with SK-MEL-28 melanoma, in the assay with DU-145 prostate and in the assay on 786-0 renal was greater than 10 µM throughout. In the assay with HCT-15 colon, this compound displayed a TGI greater than 10 µM.

In the case of `Cc1ccc(SC(=O)N2C(=S)NC(=NC3CCCCC3)C23CCCCC3)cc1`, the TGI with UACC-257 melanoma, in the assay on M14 melanoma, in the assay with CCRF-CEM leukemia, in the assay on SK-MEL-28 melanoma, in the assay on DU-145 prostate and in the assay with SF-295 CNS was greater than 100 µM throughout. The TGI with SK-MEL-2 melanoma, in the assay on 786-0 renal and with HCT-15 colon was greater than 100 µM throughout.

For the compound `O=C1NC2(CN3CCC2CC3)C(=O)N1CN(Cc1ccccc1)c1ccccc1` (stereo unspecified), the TGI in the assay with NCI-H226 lung, in the assay on UACC-257 melanoma, in the assay with M14 melanoma, in the assay on SK-MEL-28 melanoma, with DU-145 prostate and in the assay on SF-295 CNS was greater than 100 µM throughout. The TGI with SK-MEL-2 melanoma, in the assay with 786-0 renal and with HCT-15 colon was greater than 100 µM in each case.

With `Cc1cc(N/N=C/c2nc(-c3ccc(Cl)cc3)oc2C)c2cc(Cl)ccc2n1`, the GI50 in the assay on NCI-H226 lung is 17 µM; in the assay on UACC-257 melanoma, 1.93 µM; in the assay with M14 melanoma it was 1.96 µM; with CCRF-CEM leukemia it was 1.59 µM; in the assay with SK-MEL-28 melanoma it was 1.99 µM; with DU-145 prostate, 2.45 µM. Further, the GI50 was 10.2 µM with SF-295 CNS, 16.4 µM in the assay on SK-MEL-2 melanoma, 1.55 µM in the assay on 786-0 renal and 1.68 µM with HCT-15 colon. The TGI with NCI-H226 lung was 38.3 µM; in the assay with UACC-257 melanoma, 4.52 µM; with M14 melanoma, 4.13 µM; in the assay on CCRF-CEM leukemia, 7.18 µM; in the assay on SK-MEL-28 melanoma, 3.86 µM; in the assay with DU-145 prostate, 6.9 µM. Also, the TGI turned out to be 22.6 µM in the assay on SF-295 CNS, 31.8 µM with SK-MEL-2 melanoma, 2.99 µM in the assay on 786-0 renal and 3.66 µM in the assay on HCT-15 colon.

On to `c1cc(CNC2C3CCC(C3)C2c2c[nH]c3ccccc23)cc(CNC2C3CCC(C3)C2c2c[nH]c3ccccc23)c1` (stereo unspecified), for which the GI50 in the assay on UACC-257 melanoma is 2 µM; in the assay on SK-MEL-28 melanoma it was 1.01 µM and 0.343 µM; with 786-0 renal, 14.2 µM; with HCT-15 colon, 0.325 µM and 0.301 µM. For the same compound, the TGI in the assay on UACC-257 melanoma was 3.82 µM; in the assay with M14 melanoma it was 5.3 µM; in the assay with CCRF-CEM leukemia, greater than 100 µM; with SK-MEL-28 melanoma, 2.3 µM and 1.51 µM; in the assay on DU-145 prostate, 2.3 µM; in the assay with SK-MEL-2 melanoma, 3.11 µM. Also, the TGI was 27.3 µM in the assay on 786-0 renal; 1.01 µM and 1.12 µM in the assay with HCT-15 colon.

As to `CCOc1c(Cl)cc(CNC(C)C(O)c2ccccc2)cc1OC` (stereo unspecified), the GI50 with NCI-H226 lung was 33.5 µM; in the assay with UACC-257 melanoma, 19.1 µM; in the assay with CCRF-CEM leukemia it was 35.6 µM; in the assay with SK-MEL-28 melanoma it was 15.3 µM; in the assay on DU-145 prostate, 37.6 µM; in the assay with SF-295 CNS, 16.4 µM. Also, the GI50 in the assay with SK-MEL-2 melanoma is 21.4 µM; with 786-0 renal it was 16.1 µM; in the assay on HCT-15 colon it was 21.9 µM. Besides, the TGI in the assay on NCI-H226 lung is greater than 100 µM; in the assay on UACC-257 melanoma, 43.1 µM; in the assay on CCRF-CEM leukemia, greater than 100 µM; in the assay on SK-MEL-28 melanoma it was 30.8 µM; in the assay on DU-145 prostate it was greater than 100 µM; with SF-295 CNS, 34.6 µM. Also, the TGI in the assay with SK-MEL-2 melanoma came to 39 µM; in the assay with 786-0 renal it was 38.9 µM; in the assay on HCT-15 colon, 67.4 µM.

For the compound `Cc1c2ccc(N(C)c3ccnc(Nc4cccc(S(N)(=O)=O)c4)n3)cc2nn1C`, the GI50 with NCI-H226 lung was 6.2 µM; in the assay on UACC-257 melanoma it was 12.2 µM; with M14 melanoma, 9.73 µM; with CCRF-CEM leukemia, 9.21 µM; in the assay with SK-MEL-28 melanoma it was 9.95 µM; with DU-145 prostate it was 9.06 µM. The GI50 is 6.81 µM with SF-295 CNS, 7.06 µM with SK-MEL-2 melanoma, 13.2 µM with 786-0 renal and 9.34 µM in the assay with HCT-15 colon. Besides, the TGI with NCI-H226 lung, in the assay on UACC-257 melanoma, in the assay with M14 melanoma, in the assay with CCRF-CEM leukemia, in the assay with SK-MEL-28 melanoma and in the assay with DU-145 prostate was greater than 25 µM throughout. For the same compound, the TGI is greater than 19.9 µM in the assay with SF-295 CNS, 16.7 µM in the assay on SK-MEL-2 melanoma, greater than 25 µM with 786-0 renal and greater than 25 µM with HCT-15 colon.

Turning to `COC(=O)C1=C(C(=O)OC)SC(=C(Cl)C(=S)Sc2ccccc2N)S1`, the GI50 with NCI-H226 lung is 30.7 µM; in the assay on UACC-257 melanoma it was 20.3 µM; in the assay with M14 melanoma, 7.35 µM; in the assay on SK-MEL-28 melanoma, greater than 100 µM; in the assay on DU-145 prostate, 4.14 µM; with SF-295 CNS, 26.2 µM. In addition, the GI50 is 14.2 µM in the assay with SK-MEL-2 melanoma, 16.9 µM in the assay with 786-0 renal and 43.8 µM in the assay on HCT-15 colon. The TGI is greater than 100 µM in the assay on NCI-H226 lung; 55.7 µM with UACC-257 melanoma; 30.3 µM in the assay with M14 melanoma; greater than 100 µM in the assay on SK-MEL-28 melanoma; 43.7 µM in the assay with DU-145 prostate; 64.5 µM in the assay with SF-295 CNS. The results for the TGI with SK-MEL-2 melanoma, with 786-0 renal and in the assay on HCT-15 colon were 43.6 µM, 36.1 µM and greater than 100 µM, respectively.

As to `CC(=O)Nc1ccc(S(=O)(=O)NNC(=O)c2cccnc2Nc2ccc(Cl)cc2)cc1`, the GI50 was 42.3 µM with NCI-H226 lung; 89.4 µM in the assay on UACC-257 melanoma; 11.5 µM with M14 melanoma; 21.3 µM in the assay with CCRF-CEM leukemia; 23.4 µM in the assay with SK-MEL-28 melanoma; 34.3 µM with DU-145 prostate. For the same compound, the values for the GI50 in the assay on SF-295 CNS, in the assay on 786-0 renal and with HCT-15 colon were 3.49 µM, 48 µM and 13.7 µM, respectively. The TGI in the assay on NCI-H226 lung, in the assay with UACC-257 melanoma, in the assay on M14 melanoma, in the assay with CCRF-CEM leukemia, in the assay with SK-MEL-28 melanoma and with DU-145 prostate was greater than 100 µM each time. The TGI with SF-295 CNS, in the assay on 786-0 renal and in the assay with HCT-15 colon was greater than 100 µM in each case.

Values taken from PubChem BioAssay (NCI).
